Measurements published in US20240390349A1, “DOSING REGIMEN OF CAPSID INHIBITOR” (priority 2023, published 2024).
Where “and” joins values, the source holds several entries; their conditions need not be identical. Identical values can stand only once. Entries after “also recorded” stand apart in the source; their conditions may differ. Like-named read-outs stand apart in the source and are kept apart here.

Tests used:
[1] = LEN plasma concentrations during oral bridging period, CALIBRATE (Phase 2, ARV-naive PWH); type: in vivo; conditions: human, plasma, 300 mg
Description: The objective of this study was to evaluate the pharmacokinetics (PK) of LEN during oral bridging period (OBP) to assess the adequacy of 300-mg PO once-weekly (QW) regimen for maintaining therapeutic concentrations between missed SC LEN doses. During OBP, sparse PK samples were collected at the start of OBP and every ˜10-12 weeks (without regard to a prespecified time since dose) until SC LEN was resumed. LEN plasma concentrations were summarized during OBP in the CAPELLA (N=57) and CALIBRATE (N=82) studies.
(§1) This Example describes a Phase 2, randomized, open-label, active-controlled, multicenter study. Participants in Treatment Groups 1 and 2 required oral bridging following a clinical hold imposed by the Food & Drug Administration on injectable LEN as the SC injection of LEN could not be administered within the protocol visit window. An Oral Bridging visit was completed every 10 to 12 weeks. Participants had to have met all of the inclusion criteria and none of the exclusion criteria to be included in the study.
Participants in Treatment Groups 1 and 2 required oral weekly bridging when SC injection of LEN could not be administered due to the LEN clinical hold. • If 26 to 28 weeks elapsed since the last SC injection and if clinically appropriate to continue LEN, oral LEN 300 mg (1 tablet) once a week was started at oral bridging visits and continued weekly dosing on the same day of the week. • If more than 28 weeks elapsed since the last SC injection and if clinically appropriate to continue LEN, the oral lead-in was restarted at the oral bridging visit and the participant continued oral weekly dosing on the same day of the week, until SC LEN was administered, as shown in Table 9. • Participants continued receiving oral weekly LEN 300 mg until they received their next SC LEN injection. • Oral bridging visits were completed every 10-12 weeks. Additional visits during the oral weekly administration were conducted perd investigator's discretion.

HIV-1 = assay: Efficacy of oral bridging (HIV-1 RNA, CD4), CALIBRATE; type: in vivo, human
Description: This Example describes results from a Phase 2 clinical study evaluating the safety and efficacy of LEN in combination with other antiretroviral (ARV) agents in ARV-naive people with HIV (PWH).
as §1

[2] = test system: HIV-1 capsid LEN resistance mutations; conditions: for Fold decrease in LEN susceptibility: 1 participant
Description: In HTE participants (Example 4), the resistance analysis population (RAP) during the oral bridging period included 9 participants (16%, 9/57) who met the criteria for resistance analysis, including 4 participants also present in the previous analysis. […];

CC(C)(C#Cc1ccc(-c2ccc(Cl)c3c(NS(C)(=O)=O)nn(CC(F)(F)F)c23)c([C@H](Cc2cc(F)cc(F)c2)NC(=O)Cn2nc(C(F)(F)F)c3c2C(F)(F)[C@@H]2C[C@H]32)n1)S(C)(=O)=O [LEN, N—((S)-1-(3-(4-chloro-3-(methylsulfonamido)-1-(2,2,2-trifluoroethyl)-1H-indazol-7-yl)-6-(3-methyl-3-(methylsulfonyl)but-1-yn-1-yl)pyridin-2-yl)-2-(3,5-difluorophenyl)ethyl)-2-((3bS,4aR)-5,5-difluoro-3-(trifluoromethyl)-3b,4,4a,5-tetrahydro-1H-cyclopropa [3,4]cyclopenta [1,2-c]pyrazol-1-yl) acetamide]
concentration at 30 week ([1]; oral, Treatment Group 2, Week 30, read-out: Mean LEN plasma concentration): 56.5 ng/mL
concentration at 1 day ([1]; sc, SC LEN total, Day 1, read-out: Lower 90% CI of Concentration): 25.3 ng/mL
concentration at 10 week ([1]; sc, SC LEN total, Week 10, read-out: Lower 90% CI of Concentration): 47.1 ng/mL
concentration at 10 week ([1]; sc, SC LEN total, Week 10, read-out: Mean LEN plasma concentration): 54.9 ng/mL
concentration at 20 week ([1]; sc, SC LEN total, Week 20, read-out: Lower 90% CI of Concentration): 43.7 ng/mL
concentration at 20 week ([1]; sc, SC LEN total, Week 20, read-out: Mean LEN plasma concentration): 52.5 ng/mL
concentration at 30 week ([1]; sc, SC LEN total, Week 30, read-out: Lower 90% CI of Concentration): 24.4 ng/mL
concentration at 30 week ([1]; sc, SC LEN total, Week 30, read-out: Mean LEN plasma concentration): 50.1 ng/mL
concentration at 1 day ([1]; sc, Treatment Group 1 (SC LEN + [DVY→TAF]), Day 1, read-out: Mean LEN plasma concentration): 28.8 ng/mL
concentration at 1 day ([1]; sc, Treatment Group 2 (SC LEN + [DVY→BIC]), Day 1, read-out: Mean LEN plasma concentration): 26.7 ng/mL
CD4 count and CD4% during oral bridging (in words) (HIV-1): generally stable or slightly increasing
Mean (SD) CD4 cell count at oral bridging baseline (HIV-1; LEN total group): 762 (285.2) /μL
Mean CD4% at oral bridging baseline (HIV-1; LEN total group): 34%
Proportion of participants with HIV-1 RNA<50 copies/mL (HIV-1; LEN total group, OB baseline): 99.2%
Proportion of participants with HIV-1 RNA<50 copies/mL (HIV-1; Missing=Excluded, OB Week 10): 77/77 (100) %
Proportion of participants with HIV-1 RNA<50 copies/mL (HIV-1; Missing=Excluded, OB Week 20): 58/58 (100) %
Proportion of participants with HIV-1 RNA<50 copies/mL (HIV-1; Missing=Excluded, OB Week 30): 5/5 (100) %
Proportion of participants with HIV-1 RNA<50 copies/mL (HIV-1; Missing=Excluded, all subsequent oral bridging time points, all treatment groups): 100%
Proportion of participants with HIV-1 RNA<50 copies/mL (HIV-1; Missing=Failure, Week 10, LEN total): 97.5%
Proportion of participants with HIV-1 RNA<50 copies/mL (HIV-1; Missing=Failure, Week 10, SC LEN total group): 97.5%
Proportion of participants with HIV-1 RNA<50 copies/mL (HIV-1; Missing=Failure, Week 10, oral LEN group): 97.4%
Proportion of participants with HIV-1 RNA<50 copies/mL (HIV-1; Missing=Failure, Week 20, LEN total): 100%
Proportion of participants with HIV-1 RNA<50 copies/mL (HIV-1; Missing=Failure, Week 20, SC LEN total group): 100%
Proportion of participants with HIV-1 RNA<50 copies/mL (HIV-1; Missing=Failure, Week 20, oral LEN group): 100%
Mean CD4% at oral bridging baseline (HIV-1; SC LEN total group): 35%
Proportion of participants with HIV-1 RNA<50 copies/mL (HIV-1; SC LEN total group (received OB), OB Baseline): 100% and 82/82 (100) %
Mean change from oral bridging baseline in CD4% (HIV-1; Week 10, LEN total group): 1%
Mean change from oral bridging baseline in CD4 cell count (HIV-1; Week 10, LEN total group): 35 µL⁻¹
Mean change from oral bridging baseline in CD4% (HIV-1; Week 10, SC LEN total group): 0%
Mean change from oral bridging baseline in CD4 cell count (HIV-1; Week 10, SC LEN total group): 26 µL⁻¹
Mean change from oral bridging baseline in CD4% (HIV-1; Week 10, oral LEN group): 1%
Mean change from oral bridging baseline in CD4 cell count (HIV-1; Week 10, oral LEN group): 55 µL⁻¹
Mean change from oral bridging baseline in CD4% (HIV-1; Week 20, LEN total group): 0%
Mean change from oral bridging baseline in CD4 cell count (HIV-1; Week 20, LEN total group): 0 µL⁻¹
Mean change from oral bridging baseline in CD4% (HIV-1; Week 20, SC LEN total group): 0%
Mean change from oral bridging baseline in CD4 cell count (HIV-1; Week 20, SC LEN total group): -31 µL⁻¹
Mean change from oral bridging baseline in CD4% (HIV-1; Week 20, oral LEN group): 1%
Mean change from oral bridging baseline in CD4 cell count (HIV-1; Week 20, oral LEN group): 106 µL⁻¹
Mean CD4% at oral bridging baseline (HIV-1; oral LEN group): 33%
Proportion of participants with HIV-1 RNA<50 copies/mL (HIV-1; oral LEN group, OB baseline): 97.4%
Virologic suppression / virologic failure during oral bridging (in words) (HIV-1; treatment-naive participants): remained virologically suppressed; also recorded: No treatment-naive participants from the study described in Example 4 experienced virologic failure
Fold decrease in LEN susceptibility ([2]; K70N+N74K): 289 fold
Mean fold decrease in LEN susceptibility ([2]; Q67H or Q67Q/H, 3 participants): 5.6 fold
Fold decrease in LEN susceptibility ([2]; Q67H+K70R+T107T/N): 393 fold
